This passage reports ED50 results from US20240383882A1 (Ecstasy LLC, priority 2020, published 2024).

Counter-ions that a name gives are not always drawn. A value given as a limit tells only on which side of the number the result lay.

The test system of the first test is male C57BL/6 mice. In words: 55° C. warm-water tail-flick test (antinociception). As to conditions: Mus musculus, sc, 0.5 h, compounds of Table I; s.c.; 30 min; 55° C. water; configuration tested as in Table II; read-out: ED50 (mg/kg) at 30 min on C57BL/6 mice in Warm-water Tail-flick Test. The format is in vivo. As for the experimental part: Antinociception was assessed using the 55° C. warm-water tail-flick test. The latency to the first sign of a rapid tail flick was taken as the behavioral endpoint. Each mouse was first tested for baseline latency by immersing its tail in the water and recording the time to response. Mice not responding within 2 secs were excluded from further testing. Responsive mice were then s.c. administered the test compound and tested for antinociception at 30 min, 60 min, 90 min, and 120 min time points afterward. Antinociception was calculated using the following formula: percentage of antinociception=100×(test latency−control latency)/(20−control latency).
The following new compounds were also made and tested to determine the half maximal possible effective dose, or ED50 (mg/kg), in mice, using one of: the warm water tail-flick test as in Table II, spared nerve injury, chronic constriction injury, or Complete Freund's adjuvant induced inflammatory pain. The symbols in the last column are: + indicates ED 50>50 mg/kg; ++ indicates ED 50 is less than or equal to 30 mg/kg.
(Hot-plate and tail-flick tests time the reaction to a heat stimulus.)
Regarding `CCOC(C)C1(CCc2cccs2)CCN(C(C)(C)c2ccc(C)nc2)C1` (single isomer, unassigned) [Compound 5], the ED50 was at most 30 mg/kg. The same measure, in the same setting: to `CCOC(C(F)(F)F)(C(F)(F)F)[C@]1(CCc2ccc(F)cc2)CCN(Cc2ccc(C)nc2)C1` [Compound 13, (R)-5-((3-(2-ethoxy-1,1,1,3,3,3-hexafluoropropan-2-yl)-3-(4-fluorophenethyl)pyrrolidin-1-yl)methyl)-2-methylpyridine] belongs at most 30 mg/kg; to `Cc1ccc(S(=O)(=O)NC(c2ccccn2)C2(CCc3ccc(F)s3)CCN(C(C)(C)c3ccc(C)nc3)C2)cc1` (single isomer, unassigned) [Compound 321], at most 30 mg/kg; to `CCC(C)(c1ccc(C)nc1)N1CCC(CCc2cccs2)(C2OCCc3ccccc32)C1` (single isomer, unassigned) [Compound 89, 5-(2-((R or S)-3-((S or R)-isochroman-1-yl)-3-(2-(thiophen-2-yl)ethyl)pyrrolidin-1-yl)butan-2-yl)-2-methylpyridine citrate], at most 30 mg/kg. On the same count and under the same terms, to `Cc1ccc(C(C)(C)N2CCC(CCc3cccs3)(COC(F)F)C2)cn1` (single isomer, unassigned) [Compound 82, (R or S)-5-(2-(3-((difluoromethoxy)methyl)-3-(2-(thiophen-2-yl)ethyl)pyrrolidin-1-yl)propan-2-yl)-2-methylpyridine citarte] belongs at most 30 mg/kg; to `CCOCC1(CCn2c(=O)[nH]c3cnccc32)CCN(C(C)(C)c2ccc(C)nc2)C1` (stereo not drawn) [Compound 92, 1-(2-(3-(ethoxymethyl)-1-(2-(6-methylpyridin-3-yl)propan-2-yl)pyrrolidin-3-yl)ethyl)-1,3-dihydro-2H-imidazo[4,5-c]pyridin-2-one citrate], at most 30 mg/kg.

Still in this test, the particulars now being: Mus musculus, sc, 0.5 h, compounds of Table V; s.c.; 30 min; 55° C. water; read-out: ED50 (mg/kg) at 30 min on C57BL/6 mice in Warm-water Tail-flick Test (same conditions as Table II).
`CCOC(C(F)(F)F)(C(F)(F)F)[C@]1(CCc2ccc(F)cc2)CCN(Cc2ccc(C)nc2)C1` [Compound 13, (R)-5-((3-(2-ethoxy-1,1,1,3,3,3-hexafluoropropan-2-yl)-3-(4-fluorophenethyl)pyrrolidin-1-yl)methyl)-2-methylpyridine]: the ED50 was above 50 mg/kg.

The test is the same for the next values; noted with them: Mus musculus; half maximal effective dose in mice; using one of: warm water tail-flick test, spared nerve injury, chronic constriction injury, or Complete Freund's adjuvant induced inflammatory pain (not stated which per compound); read-out: Biological Activity (ED50).
In the case of `Cc1cccc(C(C)(C)N2CC[C@@](CCc3ccc(C#N)cc3)(C(N)=O)C2)n1` [Compound 149, (R)-3-(4-cyanophenethyl)-1-(2-(6-methylpyridin-2-yl)propan-2-yl)pyrrolidine-3-carboxamide], the ED50 was above 50 mg/kg. On the same count and under the same terms, in the case of `CC(C)(c1ccccn1)N1CC[C@](CO)(CCc2ccc(F)cc2)C1` [Compound 215, (R)-(3-(4-fluorophenethyl)-1-(2-(pyridin-2-yl)propan-2-yl)pyrrolidin-3-yl)methanol] it was above 50 mg/kg; in that of `CC(C)(c1ccccn1)N1CC[C@@](CCc2ccc(C#N)cc2F)(C(O)C(F)(F)F)C1` (single isomer, unassigned) [Compound 116, 3-fluoro-4-(2-((R)-1-(2-(pyridin-2-yl)propan-2-yl)-3-((R or S)-2,2,2-trifluoro-1-hydroxyethyl)pyrrolidin-3-yl)ethyl) benzonitrile], above 50 mg/kg; in that of `CCOC[C@]1(CCc2ccc(S(C)(=O)=O)cc2)CCN(C(C)(C)c2ccc(Cl)cc2)C1` [Compound 221, (R)-1-(2-(4-chlorophenyl)propan-2-yl)-3-(ethoxymethyl)-3-(4-(methylsulfonyl)phenethyl) pyrrolidine], above 50 mg/kg. Same read-out and setting: to `CC(C)(c1ccc(Cl)cc1)N1CC[C@@](CO)(CCc2ccc(S(C)(=O)=O)cc2)C1` [Compound 44] belongs above 50 mg/kg.

In the case of `COC[C@@]1(CCc2ccc(S(C)(=O)=O)cc2)CCN(C(C)(C)c2ccc(Cl)cn2)C1` [Compound 45], the ED50 was above 50 mg/kg. On the same count and under the same terms, to `CCC(C)(c1ccc(S(C)(=O)=O)cc1)N1CC[C@@](CCc2ccc(F)cc2)(COCc2ccccc2)C1` (stereo partly drawn) [Compound 34, (3R)-3-((benzyloxy)methyl)-3-(4-fluorophenethyl)-1-(2-(4-(methylsulfonyl)phenyl)butan-2-yl)pyrrolidine] belongs above 50 mg/kg; to `CC(C)(c1ccccn1)N1CC[C@@](CCc2ccc(C#N)cc2)(c2ncc[nH]2)C1` [Compound 107, (R)-4-(2-(3-(1H-imidazol-2-yl)-1-(2-(pyridin-2-yl)propan-2-yl)pyrrolidin-3-yl)ethyl) benzonitrile], above 50 mg/kg. Same read-out and setting: in the case of `COc1cccc(C(C)(C)N2CC[C@](CO)(CCc3ccc(C#N)cc3)C2)n1` [Compound 157, (R)-4-(2-(3-(hydroxymethyl)-1-(2-(6-methoxypyridin-2-yl)propan-2-yl)pyrrolidin-3-yl)ethyl) benzonitrile] it was at most 30 mg/kg; in that of `CC(C)(c1ccccn1)N1CC[C@@](CCc2ccc(C#N)s2)(C(O)C(F)(F)F)C1` (single isomer, unassigned) [Compound 152, 5-(2-((R)-1-(2-(pyridin-2-yl)propan-2-yl)-3-((R or S)-2,2,2-trifluoro-1-hydroxyethyl)pyrrolidin-3-yl)ethyl)thiophene-2-carbonitrile], at most 30 mg/kg. Same read-out and setting: to `CCOC[C@]1(CCc2ccc(C#N)cc2)CCN(C(C)(C)c2ccccn2)C1` [Compound 132, (R)-4-(2-(3-(ethoxymethyl)-1-(2-(pyridin-2-yl)propan-2-yl)pyrrolidin-3-yl)ethyl) benzonitrile] belongs above 50 mg/kg; to `COC[C@@]1(CCc2ccc(S(C)(=O)=O)cc2)CCN(C(C)(C)c2ccc(Cl)cc2)C1` [Compound 43], above 50 mg/kg. For `N#Cc1ccc(CC[C@]2(C3CCO3)CCN(Cc3cccnc3)C2)cc1` (single isomer, unassigned) [Compound 21, 4-(2-((S)-3-((R or S)-oxetan-2-yl)-1-(pyridin-3-ylmethyl)pyrrolidin-3-yl)ethyl) benzonitrile], the ED50 was above 50 mg/kg. Still for that read-out and setting: to `CC(C)(c1ccccn1)N1CC[C@](CCc2ccc(C#N)cc2)(c2ncc[nH]2)C1` [Compound 225, (S)-4-(2-(3-(1H-imidazol-2-yl)-1-(2-(pyridin-2-yl)propan-2-yl)pyrrolidin-3-yl)ethyl) benzonitrile] belongs above 50 mg/kg; to `CC(C)(c1ccccn1)N1CC[C@@](CCc2ccc(C#N)cc2)(C(=O)C(F)(F)F)C1` [Compound 100, (R)-4-(2-(1-(2-(pyridin-2-yl)propan-2-yl)-3-(2,2,2-trifluoroacetyl)pyrrolidin-3-yl)ethyl) benzonitrile], above 50 mg/kg. The same measure, in the same setting: in the case of `CCOC(C(F)(F)F)(C(F)(F)F)[C@]1(CCc2ccc(F)cc2)CCN(Cc2ccc(C)nc2)C1` [Compound 13, (R)-5-((3-(2-ethoxy-1,1,1,3,3,3-hexafluoropropan-2-yl)-3-(4-fluorophenethyl)pyrrolidin-1-yl)methyl)-2-methylpyridine] it was above 50 mg/kg. Same read-out and setting: to `COC(C(F)(F)F)(C(F)(F)F)[C@]1(COCc2ccccc2)CCN(C2(c3ncon3)COC2)C1` [Compound 24] belongs above 50 mg/kg; to `CC(C)(c1ccccn1)N1CC[C@@](CCc2ccc(C#N)s2)(C(=O)C(F)(F)F)C1` [Compound 154, (R)-5-(2-(1-(2-(pyridin-2-yl)propan-2-yl)-3-(2,2,2-trifluoroacetyl)pyrrolidin-3-yl)ethyl)thiophene-2-carbonitrile], above 50 mg/kg. As to `Fc1ccc(CC[C@@]2(C3CCO3)CCN(Cc3cccnc3)C2)cc1` (single isomer, unassigned) [Compound 12, 3-(((R)-3-(4-fluorophenethyl)-3-((R or S)-oxetan-2-yl)pyrrolidin-1-yl)methyl)pyridine], the ED50 is at most 30 mg/kg. On the same count and under the same terms, to `CCOC(C(F)(F)F)(C(F)(F)F)[C@]1(COCc2ccccc2)CCN(C(C)(C)c2ccns2)C1` [Compound 23, (R)-5-(2-(3-((benzyloxy)methyl)-3-(2-ethoxy-1,1,1,3,3,3-hexafluoropropan-2-yl)pyrrolidin-1-yl)propan-2-yl)isothiazole] belongs above 50 mg/kg. For the molecule `Cc1cccc(C(C)(C)N2CC[C@](CO)(CCc3ccc(C#N)cc3)C2)n1` [Compound 144, (R)-4-(2-(3-(hydroxymethyl)-1-(2-(6-methylpyridin-2-yl)propan-2-yl)pyrrolidin-3-yl)ethyl) benzonitrile], the ED50 was above 50 mg/kg.

Consider `CC(C)(c1ccccn1)N1CC[C@@](CCc2ccc(C#N)cc2)(CNC2(C(F)(F)F)COC2)C1` [Compound 202, (S)-4-(2-(1-(2-(pyridin-2-yl)propan-2-yl)-3-(((3-(trifluoromethyl)oxetan-3-yl)amino)methyl)pyrrolidin-3-yl)ethyl) benzonitrile], for which the ED50 was above 50 mg/kg.

Regarding `COc1cccc(C(C)(C)N2CC[C@@](CCc3ccc(C#N)cc3)(C(N)=O)C2)c1` [Compound 148, (R)-3-(4-cyanophenethyl)-1-(2-(3-methoxyphenyl)propan-2-yl)pyrrolidine-3-carboxamide], the ED50 was above 50 mg/kg. Take `CC(C)(c1ccccn1)N1CC[C@](C#N)(CCc2ccc3ccoc3c2)C1` [Compound 180, (R)-3-(2-(benzofuran-6-yl)ethyl)-1-(2-(pyridin-2-yl)propan-2-yl)pyrrolidine-3-carbonitrile]: the ED50 was above 50 mg/kg. For the molecule `CC(C)(c1ccccn1)N1CC[C@@](/C=C/c2ccc(C(F)(F)F)o2)(COCc2ccccc2)C1` [Compound 188, (S,E)-2-(2-(3-((benzyloxy)methyl)-3-(2-(5-(trifluoromethyl)furan-2-yl)vinyl)pyrrolidin-1-yl)propan-2-yl)pyridine], the ED50 was above 50 mg/kg. On the same count and under the same terms, to `CC(C)(c1ccccn1)N1CC[C@](C#N)(CCc2ccc3nonc3c2)C1` [Compound 178, (R)-3-(2-(benzo[c][1,2,5]oxadiazol-5-yl)ethyl)-1-(2-(pyridin-2-yl)propan-2-yl)pyrrolidine-3-carbonitrile] belongs above 50 mg/kg.
